Measurements as given in publication PMC5236087, “A Generic Multi-Compartmental CNS Distribution Model Structure for 9 Drugs Allows Prediction of Human Brain Target Site Concentrations” (Pharmaceutical Research, 2016).
Where two headings read alike, the source gives them in different places. Marks after values point to notes of the source that are not given here.

Legend:
[1] = design: method as in PMID 4150300; conditions: human; cited from earlier work
[2] = Multi-compartmental brain PK model fitted to rat plasma and microdialysis (brainECF, CSF) data; format: in vivo; conditions: parameter estimate (RSE, %); for clearance: male, Wistar, plasma, intravenous infusion, read-out: CLPL, clearance from the central compartment
Protocol: An overview of experimental data for nine compounds with different physicochemical characteristics used for model development is provided in Table I. The physicochemical characteristics of the nine compounds are provided in Table SI.
Animal study protocols were approved by the Animal Ethics Committee of Leiden University and all animal experiments were performed in accordance with the Dutch Law of Animal Experimentation (for approval numbers see Table SII). […] Between surgery and experiments, the animals were kept individually in Makrolon type three cages for 7 days to recover from surgical procedures.
Rats were anesthetized (5% isoflurane for induction, 1–2% as maintenance), and subsequently received cannulas in the femoral artery for serial blood sampling, and in the femoral vein for drug administration, respectively. Subsequently, microdialysis guides were inserted into different brain locations. The animals were allowed to recover for 1 week before the experiments were performed. One day before the experiment, the microdialysis dummies were replaced by microdialysis probes. For details on guides, probes and locations see Table SII.
Experiments generally started at 9:00 a.m. to minimize the influence of circadian rhythms. Microdialysis probes were continuously flushed with microdialysis perfusion fluid (PF) until equilibration before the start of drug administration. Drugs were administered at t = 0 h by intravenous infusion through the cannula implanted in the femoral vein. […] The general procedure of microdialysis is depicted in Fig. 1.
Separate models describing plasma and brain concentration-time profiles for all nine compounds were developed whereby plasma- and brain-related parameters were estimated simultaneously. A naïve pooling approach was used ([37]), i.e. inter-individual variability in each compound’s data was not quantified, because of the highly standardized experimental settings combined with the homogeneous nature of the animals within each study.
The structural model that was used as a starting point was based on our previously developed models ([23]–[25]).
First, a combined drug dispersion parameter was estimated to capture the CSF and ECF flow and turbulence flow of the drug molecules ([38],[39]).
Second, drug transfer across the BCSFB was excluded.
We evaluated for each drug the validity of the changes to the basic model with regard to a single or two different flow rates for drug dispersion and drug transport at the BCSFB.

[3] = cited from earlier work; for fP (%), free fraction in plasma: rat data; for plasma protein binding (% bound): used to calculate free fraction in plasma
[4] = design: method as in DrugBank (http://www.drugbank.ca/); PSA: unit not given beside the values; conditions: ref DrugBank (http://www.drugbank.ca/), cited from earlier work
[5] = test system: MRPs, OATs and OATPs; assay: Effect of co-administered probenecid on drug exchange at the BBB and BCSFB; format: in vivo; conditions: rat
[6] = Fraction unbound in plasma (rat data); format: in vitro ADME; conditions: rat pooled plasma, ultrafiltration; read-out: fP (%), free fraction in plasma
Protocol: To determine the free fraction of paliperidone and risperidone in plasma samples, Centrifree Ultrafiltration Devices from Merck Millipore (Amsterdam, The Netherlands) were used to separate the free from the protein bound risperidone and paliperidone in pooled plasma samples. Both the ultrafiltrate and the original pooled plasma sample (without ultrafiltration step) were measured. The free fraction was calculated according to the following Eq. 1:1 Freefraction=Ultrafiltrateconcentration/Pooledplasmaconcentration

[7] = test system: P-gp; conditions: rat; for Impact of active transport on QPL_ECF (covariate effect of inhibitor): with GF120918 or tariquidar, estimate (RSE, %)
[8] = with probenecid, estimate (RSE, %)

| Compound | QDIFF, drug dispersion rate in brain and CSF [2] | VPER1, distribution volume of the peripheral compartment 1 [2] | VPL, distribution volume of the central compartment [2] | log D (pH 7.4) [4] | No. of H acceptors [4] | No. of H donors [4] | PSA [4] | pKa (Base) [4] | clearance [2] [mL/min] | increase of QPL_ECF in the presence of P-gp inhibitors [7] [%] | Impact of active transport on QPL_ECF (covariate effect of inhibitor) [7] | further results |
| --- | --- | --- | --- | --- | --- | --- | --- | --- | --- | --- | --- | --- |
| CC(=O)Nc1ccc(O)cc1 [Acetaminophen] | 0.0556 (10.3) mL/min | 219 (8.90) mL | 65.7 (25.4) mL | 0.5 | 2 | 2 | 49 | -4.4 | – | – | – | fp, free fraction in plasma [1]: 85%; fraction; percentage of the drug which is reabsorbed by enterohepatic circulation [2]: 93.3(1.20) %; fP (%), free fraction in plasma ([3]; ref Westerhout, 2011): 81% |
| CC(C)NCC(O)COc1ccc(CC(N)=O)cc1 (stereo not drawn) [Atenolol] | – | – | – | – | 4 | 3 | – | – | – | – | – | – |
| CN(Cc1cnc2nc(N)nc(N)c2n1)c1ccc(C(=O)N[C@@H](CCC(=O)O)C(=O)O)cc1 [Methotrexate] | 0.0598 (9.30) mL/min | 210 (7.20) mL | 51.2 (20.3) mL | -2.5 | 12 | 5 | 211 | 2.8 | 8.12 | – | – | VPER2, distribution volume of the peripheral compartment 2 [2]: 114 (6.60) mL; QDIFF, drug dispersion rate in brain and CSF ([2]; listed as methotrexate): 0.0598 mL/min; fP (%), free fraction in plasma ([3]; ref Westerhout, 2014): 45%; increase of QPL_ECF in the presence of the inhibitor of MRPs, OATs and OATPs [5]: 409%; Impact of active transport on QLV_PL (covariate effect of inhibitor) [5, 8]: 0.410 (16.0)^a; Impact of active transport on QPL_ECF (covariate effect of inhibitor) [5, 8]: 4.09 (3.7)^a; pKa (Acid) [4]: 3.4 |
| CN1CC[C@]23c4c5ccc(O)c4O[C@H]2[C@@H](O)C=C[C@H]3[C@H]1C5 [Morphine] | – | – | – | – | 4 | 2 | – | – | – | – | – | – |
| Cc1nc2n(c(=O)c1CCN1CCC(c3noc4cc(F)ccc34)CC1)CCCC2O (stereo not drawn) [Paliperidone] | 0.0248 (10.7) mL/min | – | 28400 (8.00) mL | 2.1 | 5 | 1 | 82 | 8.8 | 192 | 43.4 | 0.434 (11.4)^b | fraction unbound [6]: 0.08; log P [4]: 1.8 |
| O=C1NC(=O)C(c2ccccc2)(c2ccccc2)N1 [Phenytoin] | 0.0133 (13.0) mL/min | 5320 (7.80) mL | 2890 (7.90) mL | – | 2 | 2 | 58 | – | 44.7 | 35.5 | 0.355 (25.1)^b | QDIFF, drug dispersion rate in brain and CSF ([2]; listed as phenytoin): 0.0133 mL/min; plasma protein binding (% bound) [3]: 91% |
| C=C[C@H]1C[N@@]2CC[C@H]1C[C@@H]2[C@@H](O)c1ccnc2ccc(OC)cc12 [Quinidine] | 0.0237 (2.40) mL/min | – | – | – | 4 | 1 | 46 | – | – | 443 | 4.43 (2.80)^b | fP (%), free fraction in plasma ([3]; ref Westerhout, 2013): 14% |
| CCN1CCC[C@H]1CNC(=O)c1c(OC)ccc(Br)c1OC [Remoxipride] | – | – | – | 0.7 | 4 | 1 | 51 | 8.4 | – | – | – | fP (%), free fraction in plasma ([3]; ref Widman, 1993): 74%; plasma protein binding (% bound) [3]: 26%; log P [4]: 2.1; pKa (Acid) [4]: 13.1 |
| Cc1nc2n(c(=O)c1CCN1CCC(c3noc4cc(F)ccc34)CC1)CCCC2 [Risperidone] | – | – | – | – | 4 | 0 | 62 | – | 465 | – | – | fraction unbound [6]: 0.07 |
